This passage reports Tm and deltaH results from ChEMBL document CHEMBL4052783, “Effects of novel triple-stage antimalarial ionic liquids on lipid membrane models” (Bioorg Med Chem Lett, 2017).

The test system of experiment [1] is Lipid bilayer. Kind of experiment: Binding affinity to DPPC membrane assessed as main transition temperature at 1:10 compound/DPPC molar ratio by differential scanning calorimetric method (reference value: 41.5 degreeC).
Experiment [2] concerns Lipid bilayer. Kind of experiment: Binding affinity to DPPG membrane assessed as pre-transition temperature at 1:10 compound/DPPG molar ratio by differential scanning calorimetric method (reference value: 34.5 degreeC).
The subject of experiment [3] is Lipid bilayer. Kind of experiment: Binding affinity to DPPC membrane assessed as change in enthalpy for main transition temperature at 1:10 compound/DPPC molar ratio by differential scanning calorimetric method (reference value: 7.22 kJ/mol).
Experiment [4] has as its system Lipid bilayer. Kind of experiment: Binding affinity to DPPG membrane assessed as change in enthalpy for pre-transition temperature at 1:10 compound/DPPG molar ratio by differential scanning calorimetric method (reference value: 0.74 KJ/mol).
Experiment [5] concerns Lipid bilayer. Kind of experiment: Binding affinity to DPPG membrane assessed as main transition temperature at 1:10 compound/DPPG molar ratio by differential scanning calorimetric method (reference value: 40.3 degreeC).
The test system of experiment [6] is Lipid bilayer. Kind of experiment: Binding affinity to DPPG membrane assessed as change in enthalpy for main transition temperature at 1:10 compound/DPPG molar ratio by differential scanning calorimetric method (reference value: 8.7 KJ/mol).

On to `COc1cc(NC(C)CCCNC(=O)/C=C/c2ccc(C(C)C)cc2)c2ncccc2c1` (stereo not given), for which the Tm was 40.1 °C in the experiment on Lipid bilayer [1], 32.4 °C with Lipid bilayer [2] and 39 °C in the experiment on Lipid bilayer [5]. Besides, the deltaH was found to be 1.89 kcal/mol with Lipid bilayer [3], 0.103 kcal/mol in the experiment on Lipid bilayer [4] and 2.22 kcal/mol with Lipid bilayer [6].
Regarding `COc1cc(NC(C)CCCN)c2ncccc2c1.O=C(O)/C=C/c1ccc(Cl)cc1` (stereo not given), the Tm in the experiment with Lipid bilayer [1] was 40.7 °C; with Lipid bilayer [5], 38.1 °C. For the same molecule, the deltaH in the experiment with Lipid bilayer [3] was determined as 2.29 kcal/mol; with Lipid bilayer [6], 2.23 kcal/mol.
The corresponding values for `CC(C)c1ccc(/C=C/C(=O)O)cc1.COc1cc(NC(C)CCCN)c2ncccc2c1` (stereo not given) are 40.2 °C, 38.3 °C, 2.22 kcal/mol and 2.35 kcal/mol.
Turning to `COc1cc(NC(C)CCCNC(=O)/C=C/c2ccc(Cl)cc2)c2ncccc2c1` (stereo not given), the Tm is 40.1 °C with Lipid bilayer [1], 32.7 °C with Lipid bilayer [2] and 39 °C in the experiment with Lipid bilayer [5]. Further, the deltaH in the experiment with Lipid bilayer [3] is 2.05 kcal/mol; with Lipid bilayer [4] it was 0.143 kcal/mol; in the experiment with Lipid bilayer [6] it was 2.46 kcal/mol.
